Patent US20230066011A1, “PYRROLOPYRIMIDINE DERIVATIVE, AND PHARMACEUTICAL COMPOSITION FOR PREVENTING OR TREATING PROTEIN KINASE-RELATED DISEASE COMPRISING SAME AS ACTIVE INGREDIENT” (VORONOI CO., LTD., priority 2019, published 2023)

Experiments:
[1] = molecular target: T1, human GST-DYRK1A (Homo sapiens, UniProt Q13627); test: GST-DYRK1A enzyme inhibition, ADP-Glo kinase assay; format: biochemical; conditions: ATP 10 μM, GST-DYRK1A full length, read-out: DYRK1 IC50
T1 construct: purified human GST-DYRK1A (full length, Thermo Scientifics) enzyme; purchased Thermo Scientifics
In short: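 Full-length human GST-DYRK1A (10 ng) with 10 μM ATP and specific substrate in 40 mM Tris-HCl pH 7.4, 20 mM MgCl2, 0.5 mg/mL BSA, 50 μM DTT, 1 h at 25 °C. ADP formation read by ADP-Glo luminescence relative to solvent control; IC50 from three data sets.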

[2] = molecular target: T2, human GST-CLK1 (Homo sapiens, UniProt P49759); test: GST-CLK1 enzyme inhibition, ADP-Glo kinase assay; format: biochemical; conditions: ATP 10 μM, GST-CLK1 129-end
T2 construct: purified human GST-CLK1 (129-end, SignalChem) enzyme; purchased SignalChem
In short: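 Human GST-CLK1 (129-end, 3 ng) reacted with substrate and 10 μM ATP for 1 h at 25° C in 40 mM Tris-HCl pH 7.4, 20 mM MgCl2, 0.5 mg/mL BSA, 50 μM DTT. ADP-Glo luminescence was normalised to solvent control; IC50 (nM) from 3 data sets.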

[3] = tested on: MDA-MB-231 cell line; test: Inhibition of proliferation of MDA-MB-231 cancer cells (Cell Titer-Glo); format: cell-based; conditions: Homo sapiens, 72 hours
Method: (§1) To evaluate an inhibitory effect on the proliferation of cancer cells, each of an MDA-MB-231 cell line (Korean Cell Line Bank #30026) and an MDA-MB-468 cell line as triple-negative breast cancer cell lines, and SHP-77 (ATCC #CRL-2195) as a small-cell lung cancer cell line was cultured in DMEM (HyClone #SH30243) or an RPMI medium (HyClone #SH3027.01) to analyze a cell growth rate. More specifically, a cell line was plated on a 96-well flat bottom plate (Corning #3903) at a density of 2,000 cells/100 μL per well, and then treated with 11 concentrations of the Example compound, a solution of which was diluted 3-fold so that a final concentration of the compound was 10.000000, 3.333333, 1.111111, 0.370370, 0.123457, 0.041152, 0.013717, 0.004572, 0.001524, 0.000508, and 0.000169 μM. After 72 hours, each of the culture media was treated with 100 μL of Cell Titer-Glo (Promega G7573), and then cultured at room temperature for 10 minutes. Then, a degree of luminescence was measured using a microplate reader. A GI50 value was calculated from the measured degree of luminescence using Prism (Version 8.2 GraphPad) software.

[4] = tested on: MDA-MB-468 cell line; test: Inhibition of proliferation of MDA-MB-468 cancer cells (Cell Titer-Glo); format: cell-based; conditions: Homo sapiens, MDA-MB-468, 72 hours
Method: as §1

[5] = molecular target: LRRK2 (Homo sapiens, UniProt Q5S007); test: LRRK2 enzyme inhibition, ADP-Glo kinase assay; format: biochemical; design: purchased Invitrogen PR8604B; conditions: ATP 10 μM
In short: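 Purified human LRRK2 (25 ng) with 10 μM ATP and 0.2 μg substrate in 40 mM Tris-HCl pH 7.4, 20 mM MgCl2, 0.5 mg/mL BSA, 50 μM DTT, 2 h at 25° C. ADP-Glo luminescence; 12-point compound series from 50 μM final; IC50 relative to solvent control.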

[6] = molecular target: LRRK2 (G2019S) (Homo sapiens, UniProt Q5S007, G2019S); test: LRRK2 G2019S enzyme inhibition, ADP-Glo kinase assay; format: biochemical; design: purchased SignalChem L10-12GG; conditions: ATP 25 μM
In short: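 Purified human LRRK2 G2019S (16 ng) with 25 μM ATP and 0.2 μg substrate, 2 h at 25° C. in Tris-HCl pH 7.4, MgCl2, BSA, DTT buffer; compounds at 12 final concentrations, 50 μM down to 0.000001024 μM. ADP-Glo luminescence versus solvent control gave IC50.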

[7] = tested on: SHP-77; test: Inhibition of proliferation of SHP-77 cancer cells (Cell Titer-Glo); format: cell-based; conditions: Homo sapiens, SHP77, 72 hours
Method: as §1

LRRK2 (G2019S), sequence (Q5S007 970-2527 G2019S limits assumed): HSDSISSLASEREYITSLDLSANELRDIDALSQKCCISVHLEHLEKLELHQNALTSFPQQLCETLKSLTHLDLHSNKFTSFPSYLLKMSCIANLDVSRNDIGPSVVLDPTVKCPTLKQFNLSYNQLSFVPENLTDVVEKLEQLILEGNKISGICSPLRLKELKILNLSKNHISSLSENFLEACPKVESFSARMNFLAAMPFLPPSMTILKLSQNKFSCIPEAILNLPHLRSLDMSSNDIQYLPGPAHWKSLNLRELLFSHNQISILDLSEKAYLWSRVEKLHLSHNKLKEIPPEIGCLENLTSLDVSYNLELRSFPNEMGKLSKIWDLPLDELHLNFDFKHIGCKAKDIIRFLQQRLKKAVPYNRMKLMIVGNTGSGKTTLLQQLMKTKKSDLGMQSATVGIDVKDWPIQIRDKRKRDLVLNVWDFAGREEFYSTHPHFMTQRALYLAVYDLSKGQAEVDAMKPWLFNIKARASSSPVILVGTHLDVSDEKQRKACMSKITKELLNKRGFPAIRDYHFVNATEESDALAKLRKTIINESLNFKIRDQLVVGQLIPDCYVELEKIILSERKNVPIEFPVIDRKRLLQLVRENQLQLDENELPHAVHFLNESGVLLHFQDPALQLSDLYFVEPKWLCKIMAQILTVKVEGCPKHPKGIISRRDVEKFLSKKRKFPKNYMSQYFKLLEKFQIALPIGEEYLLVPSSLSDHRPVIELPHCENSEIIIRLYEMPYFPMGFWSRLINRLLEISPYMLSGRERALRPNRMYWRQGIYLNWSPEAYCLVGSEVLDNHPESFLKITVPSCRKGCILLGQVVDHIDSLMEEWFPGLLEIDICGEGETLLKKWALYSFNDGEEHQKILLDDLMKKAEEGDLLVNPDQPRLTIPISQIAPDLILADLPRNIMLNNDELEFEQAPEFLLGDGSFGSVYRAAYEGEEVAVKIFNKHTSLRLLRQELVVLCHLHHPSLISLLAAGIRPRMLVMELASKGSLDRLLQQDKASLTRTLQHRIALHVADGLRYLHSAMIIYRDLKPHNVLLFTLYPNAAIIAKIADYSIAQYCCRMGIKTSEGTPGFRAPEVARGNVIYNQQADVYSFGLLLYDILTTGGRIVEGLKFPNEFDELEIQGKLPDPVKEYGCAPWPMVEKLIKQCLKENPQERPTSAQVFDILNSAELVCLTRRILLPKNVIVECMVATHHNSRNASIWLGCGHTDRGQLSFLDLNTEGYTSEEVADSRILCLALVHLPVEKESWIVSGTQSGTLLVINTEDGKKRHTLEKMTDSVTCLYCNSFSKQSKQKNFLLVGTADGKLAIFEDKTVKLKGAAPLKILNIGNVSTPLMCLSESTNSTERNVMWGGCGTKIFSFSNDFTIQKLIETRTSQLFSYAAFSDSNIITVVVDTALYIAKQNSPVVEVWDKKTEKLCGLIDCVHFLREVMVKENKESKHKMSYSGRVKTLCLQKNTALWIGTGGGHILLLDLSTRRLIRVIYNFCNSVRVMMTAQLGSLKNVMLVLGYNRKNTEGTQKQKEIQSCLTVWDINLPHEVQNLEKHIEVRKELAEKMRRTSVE
LRRK2, sequence (Q5S007 970-2527 limits assumed): as the sequence (Q5S007 970-2527 G2019S limits assumed) above, with S1050G counted along it
T2 sequence (P49759 129-484 limits assumed): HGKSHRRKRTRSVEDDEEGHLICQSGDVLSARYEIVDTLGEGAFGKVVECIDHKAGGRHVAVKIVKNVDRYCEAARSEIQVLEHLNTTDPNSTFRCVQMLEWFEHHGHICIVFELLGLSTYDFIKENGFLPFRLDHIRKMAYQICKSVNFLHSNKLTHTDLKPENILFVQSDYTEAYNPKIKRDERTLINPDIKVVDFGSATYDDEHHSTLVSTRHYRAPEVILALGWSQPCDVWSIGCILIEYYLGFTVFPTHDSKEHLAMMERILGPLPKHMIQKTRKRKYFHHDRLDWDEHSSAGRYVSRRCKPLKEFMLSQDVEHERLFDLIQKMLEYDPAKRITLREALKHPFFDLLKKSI

CCNc1nc(Nc2ccc(S(=O)(=O)N3CCC(N4CCOCC4)CC3)cc2OC)nc2[nH]cc(C#N)c12 [Example 82, 4-(ethylamino)-2-((2-methoxy-4-((4-morpholinopiperidin-1-yl)sulfonyl)phenyl)amino)-7H-pyrrolo[2,3-d]pyrimidine-5-carbonitrile]
IC50 [1]: 301 to 1000 nM
IC50 [2]: < 100 nM
GI50 [3]: < 50 nM
GI50 [4]: < 50 nM
IC50 [5]: < 100 nM
IC50 [6]: < 100 nM

COc1cc(S(=O)(=O)N2CCC(N3CCOCC3)CC2)ccc1Nc1nc(NC2CC2)c2c(C(F)(F)F)c[nH]c2n1 [Example 375, N^4-cyclopropyl-N^2-(2-methoxy-4-((4-morpholino-piperidin-1-yl)sulfonyl)phenyl)-5-(trifluoromethyl)-7H-pyrrolo[2,3-d]pyrimidine-2,4-diamine]
IC50 [1]: 301 to 1000 nM
IC50 [2]: 101 to 300 nM
GI50 [3]: 101 to 300 nM
GI50 [4]: 301 to 1000 nM
IC50 [5]: < 100 nM
IC50 [6]: < 100 nM

COCCNc1nc(Nc2ccc(S(=O)(=O)N3CCOCC3)cc2OC)nc2[nH]cc(C(F)(F)F)c12 [Example 373, N^2-(2-methoxy-4-(morpholino-sulfonyl)phenyl)-N^4-(2-methoxyethyl)-5-(trifluoromethyl)-7H-pyrrolo[2,3-d]pyrimidine-2,4-diamine]
IC50 [1]: 301 to 1000 nM
IC50 [2]: 301 to 1000 nM
GI50 [3]: 301 to 1000 nM
GI50 [4]: 301 to 1000 nM
IC50 [5]: < 100 nM
IC50 [6]: < 100 nM

N#Cc1c[nH]c2nc(Nc3ccc(C(=O)N4CCOCC4)c4c3OCCO4)nc(NC3CCCC3)c12 [Example 126, 4-(cyclopentylamino)-2-((8-(morpholine-4-carbonyl)-2,3-dihydrobenzo[b][1,4]dioxin-5-yl)amino)-7H-pyrrolo[2,3-d]pyrimidine-5-carbonitrile]
IC50 [1]: 301 to 1000 nM
IC50 [2]: 301 to 1000 nM
GI50 [3]: 101 to 300 nM
GI50 [4]: 51 to 100 nM
IC50 [5]: < 100 nM

COc1cc(S(=O)(=O)N2CCC(N3CCOCC3)CC2)ccc1Nc1nc(NCC2CCCC2)c2c(C#N)c[nH]c2n1 [Example 95, 4-((cyclopentylmethyl)amino)-2-((2-methoxy-4-((4-morpholinopiperidin-1-yl)sulfonyl)phenyl)amino)-7H-pyrrolo[2,3-d]pyrimidine-5-carbonitrile]
IC50 [1]: 301 to 1000 nM
IC50 [2]: 301 to 1000 nM
GI50 [3]: 101 to 300 nM
GI50 [4]: 101 to 300 nM
IC50 [5]: < 100 nM

CCCNc1nc(Nc2ccc(S(=O)(=O)N3CCOCC3)cc2OC)nc2[nH]cc(C(F)(F)F)c12 [Example 372, N^2-(2-methoxy-4-(morpholino-sulfonyl)phenyl)-N^4-propyl-5-(trifluoromethyl)-7H-pyrrolo[2,3-d]pyrimidine-2,4-diamine]
IC50 [1]: 301 to 1000 nM
IC50 [2]: 301 to 1000 nM
GI50 [3]: 301 to 1000 nM
GI50 [4]: 301 to 1000 nM
IC50 [5]: 101 to 300 nM
IC50 [6]: < 100 nM

CCCNc1nc(Nc2ccc(S(=O)(=O)N3CCC(N4CCOCC4)CC3)cc2OC)nc2[nH]cc(C#N)c12 [Example 83, 2-((2-methoxy-4-((4-morpholinopiperidin-1-yl)sulfonyl)phenyl)amino)-4-(propylamino)-7H-pyrrolo[2,3-d]pyrimidin-5-carbonitrile]
IC50 [1]: 301 to 1000 nM
IC50 [2]: 101 to 300 nM
GI50 [3]: < 50 nM
GI50 [4]: < 50 nM
IC50 [5]: < 100 nM
IC50 [6]: < 100 nM

COc1cc(S(=O)(=O)N2CCOCC2)ccc1Nc1nc(NC(C)C)c2c(C#N)c[nH]c2n1 [Example 66, 4-(isopropylamino)-2-((2-methoxy-4-(morpholinosulfonyl)phenyl)amino)-7H-pyrrolo[2,3-d]pyrimidine-5-carbonitrile]
GI50 [3]: < 50 nM
GI50 [7]: < 50 nM
